Measurements from patent publication US20240287076A1, “COMPOUNDS FOR TARGETING DEGRADATION OF BRUTON'S TYROSINE KINASE” (BIOGEN MA INC., priority 2021, published 2024).

The molecules below were run against T1, BTK (Homo sapiens, UniProt Q06187) (assay: BTK degradation assay using the HiBiT Method (Nano-Glo HiBiT Lytic Assay, GM01501.3 cells)). Conditions: HiBiT Degradation on GM01501.3 BTK @ 6 hours.
T1 construct: The GM01501.3 cell line endogenously expresses BTK with a HiBiT fusion tag via CRISPR knock-in at its C-terminal region; endogenous in cells; host or cells: GM01501.3 (GM01501 cells engineered by CRISPR knock-in of HiBiT at the BTK locus)
Format: cell-based
Experimental: Selected compounds were tested in a BTK degradation assay using the HiBiT Method. Park Memorial Institute (RPM1) 1640 Medium with phenol red, L-Glutamine, Sodium Pyruvate, and fetal bovine serum (FBS) were purchased from Gibco (Grand Island, NY, USA). Nano-Glo® HiBiT Lytic Assay System was purchased from Promega (Madison, WI, USA). GM01501 cells were obtained from the NIGMS Human Genetic Cell Repository at the Coriell Institute for Medical Research. The GM01501.3 cell line endogenously expresses BTK with a HiBiT fusion tag via CRISPR knock-in at its C-terminal region. It was engineered by electroporation with the Neon Transfection System (Themo Fisher Scientific), according to manufacturer indications. Electroporation conditions: 1 pulse of 1,350 V for 30 ms for 0.5×10_6 cells. Cell culture flasks and 384-well microplates were acquired from VWR (Radnor, PA, USA). BTK degradation was evaluated by quantification of luminescent signal using Nano-Glo® HiBiT Lytic Assay kit. Test compounds were added to the 384-well plate from a top concentration of 10 μM with 11 points, half log titration in duplicates. GM01501.3 cells were added into 384-well plates at a cell density of 10,000 cells per well in a total volume of 30 μl. The plates were kept at 37° C. with 5% CO2 for 6 hours. Negative control wells included cells treated with DMSO only and positive control wells included only growing media, without Nano-Glo® HiBiT Lytic reagent. After a 6-hour incubation, Nano-Glo® HiBiT Lytic Assay reagent was added to the cells following manufacturer indications. Luminescence was acquired on EnVision™ Multilabel Reader (PerkinElmer, Santa Clara, CA, USA). […] “++++” represents a DC50 value of less than 100 nM. “+++” represents a DC50 value of 100 nM-500 nM. “++” represents a DC50 value of 500 nM-1000 nM. “+” represents a DC50 value of greater than 1000 nM.

T1 sequence (Q06187 whole entry, the tested form may be a part): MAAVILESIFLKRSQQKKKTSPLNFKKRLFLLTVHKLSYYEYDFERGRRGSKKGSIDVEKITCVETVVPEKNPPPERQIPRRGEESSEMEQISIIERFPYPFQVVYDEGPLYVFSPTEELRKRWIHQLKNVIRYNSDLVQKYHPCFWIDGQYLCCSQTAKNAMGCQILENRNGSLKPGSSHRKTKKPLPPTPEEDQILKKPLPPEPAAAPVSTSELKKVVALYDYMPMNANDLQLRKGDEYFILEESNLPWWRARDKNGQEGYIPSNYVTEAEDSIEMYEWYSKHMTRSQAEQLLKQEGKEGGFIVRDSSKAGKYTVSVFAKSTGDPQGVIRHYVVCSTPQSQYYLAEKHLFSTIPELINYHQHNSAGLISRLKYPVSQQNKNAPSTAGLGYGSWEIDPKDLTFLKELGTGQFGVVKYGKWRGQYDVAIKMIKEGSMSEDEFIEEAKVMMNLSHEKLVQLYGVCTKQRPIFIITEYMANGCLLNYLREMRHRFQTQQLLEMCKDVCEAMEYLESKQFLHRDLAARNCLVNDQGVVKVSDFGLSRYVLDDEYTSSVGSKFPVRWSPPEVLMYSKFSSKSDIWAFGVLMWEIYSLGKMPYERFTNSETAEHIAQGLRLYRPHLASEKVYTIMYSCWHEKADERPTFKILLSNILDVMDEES

DC50 [nM]	SMILES
< 100	CC(C)(C)c1nc(C(=O)NCc2ccc(-c3ncnn4cc(-c5ccc(CN6CCC(c7ccc(NC8CCC(=O)NC8=O)nc7)CC6)cc5)cc34)cc2F)no1 (stereo not drawn) [Example 32, 5-tert-butyl-N-[[4-[6-[4-[[4-[6-[(2,6-dioxo-3-piperidyl)amino]-3-pyridyl]-1-piperidyl]methyl]phenyl]pyrrolo[2,1-f][1,2,4]triazin-4-yl]-2-fluoro-phenyl]methyl]-1,2,4-oxadiazole-3-carboxamide]
< 100	CC(C)(C)c1nc(C(=O)NCc2ccc(-c3ncnn4cc(-c5ccc(CN6CCN(c7ccc(C8CCC(=O)NC8=O)cn7)CC6)cc5)cc34)cc2F)no1 (stereo not drawn) [Example 36, 5-tert-butyl-N-[[4-[6-[4-[[4-[5-(2,6-dioxo-3-piperidyl)-2-pyridyl]piperazin-1-yl]methyl]phenyl]pyrrolo[2,1-f][1,2,4]triazin-4-yl]-2-fluoro-phenyl]methyl]-1,2,4-oxadiazole-3-carboxamide]
< 100	CC(C)(C)c1nc(C(=O)NCc2ccc(-c3ncnn4cc(-c5ccc(CN6CCC(c7ccc(C8CCC(=O)NC8=O)cc7)CC6)cc5)cc34)cc2)no1 (stereo not drawn) [Example 40, 5-tert-butyl-N-[[4-[6-[4-[[4-[4-(2,6-dioxo-3-piperidyl)phenyl]-1-piperidyl]methyl]phenyl]pyrrolo[2,1-f][1,2,4]triazin-4-yl]phenyl]methyl]-1,2,4-oxadiazole-3-carboxamide]
< 100	CC(C)(C)c1nc(C(=O)NCc2ccc(-c3ncnn4cc(-c5ccc(CN6CCC(c7ccc(NC8CCC(=O)NC8=O)cc7)CC6)cc5)cc34)cc2)no1 (stereo not drawn) [Example 41, 5-tert-butyl-N-[[4-[6-[4-[[4-[4-[(2,6-dioxo-3-piperidyl)amino]phenyl]-1-piperidyl]methyl]phenyl]pyrrolo[2,1-f][1,2,4]triazin-4-yl]phenyl]methyl]-1,2,4-oxadiazole-3-carboxamide]
< 100	CC(C)(C)c1nc(C(=O)NCc2ccc(-c3ncnn4cc(-c5ccc(CN6CCC(c7ccc(C8CCC(=O)NC8=O)cc7)CC6)cc5)cc34)cc2F)no1 (stereo not drawn) [Example 42, 5-tert-butyl-N-[[4-[6-[4-[[4-[4-(2,6-dioxo-3-piperidyl)phenyl]-1-piperidyl]methyl]phenyl]pyrrolo[2,1-f][1,2,4]triazin-4-yl]-2-fluoro-phenyl]methyl]-1,2,4-oxadiazole-3-carboxamide]
< 100	COc1cc(-c2ncnn3cc(-c4ccc(CN5CCC(c6ccc(C7CCC(=O)NC7=O)cc6)CC5)cc4)cc23)ccc1CNC(=O)c1noc(C(C)(C)C)n1 (stereo not drawn) [Example 43, 5-tert-butyl-N-[[4-[6-[4-[[4-[4-(2,6-dioxo-3-piperidyl)phenyl]-1-piperidyl]methyl]phenyl]pyrrolo[2,1-f][1,2,4]triazin-4-yl]-2-methoxy-phenyl]methyl]-1,2,4-oxadiazole-3-carboxamide]
< 100	CC(C)(C)c1nc(C(=O)NCc2ccc(-c3ncnn4cc(-c5ccc(CN6CCC(c7ccc(NC8CCC(=O)NC8=O)cc7)CC6)cc5)cc34)cc2F)no1 (stereo not drawn) [Example 44, 5-tert-butyl-N-[[4-[6-[4-[[4-[4-[(2,6-dioxo-3-piperidyl)amino]phenyl]-1-piperidyl]methyl]phenyl]pyrrolo[2,1-f][1,2,4]triazin-4-yl]-2-fluoro-phenyl]methyl]-1,2,4-oxadiazole-3-carboxamide]
< 100	CC(C)(C)c1nc(C(=O)NCc2ccc(-c3ncnn4cc(-c5ccc(CN6CCC(c7ccc(NC8CCC(=O)NC8=O)cn7)CC6)cc5)cc34)cc2F)no1 (stereo not drawn) [Example 45, 5-tert-butyl-N-[[4-[6-[4-[[4-[5-[(2,6-dioxo-3-piperidyl)amino]-2-pyridyl]-1-piperidyl]methyl]phenyl]pyrrolo[2,1-f][1,2,4]triazin-4-yl]-2-fluoro-phenyl]methyl]-1,2,4-oxadiazole-3-carboxamide]
< 100	CC(C)(C)c1nc(C(=O)NCc2ccc(-c3ncnn4cc(-c5ccc(CN6CCC(c7ccc(C8CCC(=O)NC8=O)cc7)CC6)cc5)cc34)cc2Cl)no1 (stereo not drawn) [Example 46, 5-tert-butyl-N-[[2-chloro-4-[6-[4-[[4-[4-(2,6-dioxo-3-piperidyl)phenyl]-1-piperidyl]methyl]phenyl]pyrrolo[2,1-f][1,2,4]triazin-4-yl]phenyl]methyl]-1,2,4-oxadiazole-3-carboxamide]
< 100	COc1cc(-c2ncnn3cc(-c4ccc(CN5CCC(c6ccc(NC7CCC(=O)NC7=O)cc6)CC5)cc4)cc23)ccc1CNC(=O)c1noc(C(C)(C)C)n1 (stereo not drawn) [Example 47, 5-tert-butyl-N-[[4-[6-[4-[[4-[4-[(2,6-dioxo-3-piperidyl)amino]phenyl]-1-piperidyl]methyl]phenyl]pyrrolo[2,1-f][1,2,4]triazin-4-yl]-2-methoxy-phenyl]methyl]-1,2,4-oxadiazole-3-carboxamide]

Second part, the molecule before the results:

SMILES	DC50 [nM]
Cc1cc(-c2ncnn3cc(-c4ccc(CN5CCN(c6ccc(NC7CCC(=O)NC7=O)cc6)CC5)cc4)cc23)ccc1CNC(=O)c1noc(C(C)(C)C)n1 (stereo not drawn) [Example 29, 5-tert-butyl-N-[[4-[6-[4-[[4-[4-[(2,6-dioxo-3-piperidyl)amino]phenyl]piperazin-1-yl]methyl]phenyl]pyrrolo[2,1-f][1,2,4]triazin-4-yl]-2-methyl-phenyl]methyl]-1,2,4-oxadiazole-3-carboxamide]	< 100
Cc1cc(-c2ncnn3cc(-c4ccc(CN5CCC(c6cnc(NC7CCC(=O)NC7=O)nc6)CC5)cc4)cc23)ccc1CNC(=O)c1noc(C(C)(C)C)n1 (stereo not drawn) [Example 30, 5-tert-butyl-N-[[4-[6-[4-[[4-[2-[(2,6-dioxo-3-piperidyl)amino]pyrimidin-5-yl]-1-piperidyl]methyl]phenyl]pyrrolo[2,1-f][1,2,4]triazin-4-yl]-2-methyl-phenyl]methyl]-1,2,4-oxadiazole-3-carboxamide]	< 100
Cc1cc(-c2ncnn3cc(-c4ccc(CN5CCC(c6ccc(NC7CCC(=O)NC7=O)nn6)CC5)cc4)cc23)ccc1CNC(=O)c1noc(C(C)(C)C)n1 (stereo not drawn) [Example 31, 5-tert-butyl-N-[[4-[6-[4-[[4-[6-[(2,6-dioxo-3-piperidyl)amino]pyridazin-3-yl]-1-piperidyl]methyl]phenyl]pyrrolo[2,1-f][1,2,4]triazin-4-yl]-2-methyl-phenyl]methyl]-1,2,4-oxadiazole-3-carboxamide]	< 100
Cn1nc(N2CCC(=O)NC2=O)c2ccc(C3CCN(Cc4ccc(-c5cc6c(-c7ccc(CNC(=O)c8noc(C(C)(C)C)n8)c(F)c7)ncnn6c5)cc4F)CC3)cc21 [Example 33, 5-tert-butyl-N-[[4-[6-[4-[[4-[3-(2,4-dioxohexahydropyrimidin-1-yl)-1-methyl-indazol-6-yl]-1-piperidyl]methyl]-3-fluoro-phenyl]pyrrolo[2,1-f][1,2,4]triazin-4-yl]-2-fluoro-phenyl]methyl]-1,2,4-oxadiazole-3-carboxamide]	< 100
CN(CCn1ccc(NC2CCC(=O)NC2=O)n1)Cc1ccc(-c2cc3c(-c4ccc(CNC(=O)c5noc(C(C)(C)C)n5)c(F)c4)ncnn3c2)cc1F (stereo not drawn) [Example 34, 5-tert-butyl-N-[[4-[6-[4-[[2-[3-[(2,6-dioxo-3-piperidyl)amino]pyrazol-1-yl]ethyl-methyl-amino]methyl]-3-fluoro-phenyl]pyrrolo[2,1-f][1,2,4]triazin-4-yl]-2-fluoro-phenyl]methyl]-1,2,4-oxadiazole-3-carboxamide]	< 100
CN(Cc1ccc(-c2ncnn3cc(-c4ccc(CN5CCC(c6ccc7c(N8CCC(=O)NC8=O)nn(C)c7c6)CC5)cc4)cc23)cc1F)C(=O)c1noc(C(C)(C)C)n1 [Example 37, 5-tert-butyl-N-[[4-[6-[4-[[4-[3-(2,4-dioxohexahydropyrimidin-1-yl)-1-methyl-indazol-6-yl]-1-piperidyl]methyl]phenyl]pyrrolo[2,1-f][1,2,4]triazin-4-yl]-2-fluoro-phenyl]methyl]-N-methyl-1,2,4-oxadiazole-3-carboxamide]	100 to 500
CC(C)(C)c1nc(C(=O)NCc2ccc(-c3ncnn4cc(-c5ccc(CN6CC[C@@H](c7ccc(NC8CCC(=O)NC8=O)cc7)CC67CC7)cc5)cc34)cc2F)no1 (stereo partly drawn) [Example 38, 5-tert-butyl-N-[[4-[6-[4-[[(7R)-7-[4-[(2,6-dioxo-3-piperidyl)amino]phenyl]-4-azaspiro[2.5]octan-4-yl]methyl]phenyl]pyrrolo[2,1-f][1,2,4]triazin-4-yl]-2-fluoro-phenyl]methyl]-1,2,4-oxadiazole-3-carboxamide]	< 100
CC(C)(C)c1nc(C(=O)NCc2ccc(-c3ncnn4cc(-c5ccc(CN6CC[C@H](c7ccc(NC8CCC(=O)NC8=O)cc7)CC67CC7)cc5)cc34)cc2F)no1 (stereo partly drawn) [Example 39, 5-tert-butyl-N-[[4-[6-[4-[[(7S)-7-[4-[(2,6-dioxo-3-piperidyl)amino]phenyl]-4-azaspiro[2.5]octan-4-yl]methyl]phenyl]pyrrolo[2,1-f][1,2,4]triazin-4-yl]-2-fluoro-phenyl]methyl]-1,2,4-oxadiazole-3-carboxamide]	100 to 500
